Values of other authors as cited in publication PMC8609999, “A Phase I trial of talazoparib in patients with advanced hematologic malignancies” (International Journal of Hematologic Oncology, 2021).

Test system: CLL or MCL patients
Parameters: method as in PMID 28643365
Settings: not statistically significant; cited from earlier work

Compound: O=C(c1cc(Cc2n[nH]c(=O)c3ccccc23)ccc1F)N1CCN(C(=O)C2CC2)CC1 [olaparib]
- Overall survival in patients with ATM mutations versus those without: trend towards improved overall survival
